Measured values as given in patent US20050215589A1, “Inhibitors of 5-HT2A receptor” (priority 2003, published 2005).

Tests used:
5-HT2C [1] = molecular target: T1, 5-HT2C (Homo sapiens, UniProt P28335); assay: Radioligand displacement binding (3H-LSD); set-up: expressed in transfected cells; host or cells: CHO or HEK293; settings: recombinant human receptor in CHO or HEK293; tracer 3H-LSD
T1 sequence (P28335 33-458): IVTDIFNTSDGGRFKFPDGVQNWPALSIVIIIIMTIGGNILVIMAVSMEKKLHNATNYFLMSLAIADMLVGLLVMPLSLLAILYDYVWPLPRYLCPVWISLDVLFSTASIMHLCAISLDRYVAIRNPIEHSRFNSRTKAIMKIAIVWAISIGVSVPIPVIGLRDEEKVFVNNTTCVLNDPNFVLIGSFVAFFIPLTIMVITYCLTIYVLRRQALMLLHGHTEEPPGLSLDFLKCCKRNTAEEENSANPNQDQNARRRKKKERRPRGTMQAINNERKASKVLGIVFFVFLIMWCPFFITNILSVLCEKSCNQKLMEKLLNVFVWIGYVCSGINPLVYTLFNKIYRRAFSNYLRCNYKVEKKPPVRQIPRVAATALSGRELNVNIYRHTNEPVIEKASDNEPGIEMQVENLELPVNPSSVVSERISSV
Protocol: (§1) The affinity constants of compounds were determined using recombinant human serotonin receptors stably expressed in fibroblast cell lines (CHO or HEK293), measuring the ability of the compounds to displace radio-labelled tracers using scintillation proximity assays or filter binding assays. For 5-HT1B, 5-HT2B and 5-HT2C receptor binding studies ^3H-LSD was used as radio ligand, for 5-HT2A and 5-HT6 ^3H-5-HT was used as tracer, while the binding constant to 5-HT1A was determined using ^3H-8-OH-DPAT. The non-selective serotonin receptor antagonist mianserine was used as reference substance.
(§2) The calculation of the Ki values for the inhibitors was performed by use of Activity Base. The Ki value is calculated from IC50 using the Cheng Prushoff equation (with reversible inhibition that follows the Michaelis-Menten equation): […] [Cheng, Y. C.; Prushoff, W. H. Biochem. Pharmacol. 1973, 22, 3099-3108].

5-HT1A = molecular target: T2, 5-HT1A (Homo sapiens, UniProt P08908); assay: Radioligand displacement binding (3H-8-OH-DPAT); settings: recombinant human receptor in CHO or HEK293; tracer 3H-8-OH-DPAT
T2 construct: expressed in transfected cells; host or cells: CHO or HEK293
T2 sequence (P08908 1-422): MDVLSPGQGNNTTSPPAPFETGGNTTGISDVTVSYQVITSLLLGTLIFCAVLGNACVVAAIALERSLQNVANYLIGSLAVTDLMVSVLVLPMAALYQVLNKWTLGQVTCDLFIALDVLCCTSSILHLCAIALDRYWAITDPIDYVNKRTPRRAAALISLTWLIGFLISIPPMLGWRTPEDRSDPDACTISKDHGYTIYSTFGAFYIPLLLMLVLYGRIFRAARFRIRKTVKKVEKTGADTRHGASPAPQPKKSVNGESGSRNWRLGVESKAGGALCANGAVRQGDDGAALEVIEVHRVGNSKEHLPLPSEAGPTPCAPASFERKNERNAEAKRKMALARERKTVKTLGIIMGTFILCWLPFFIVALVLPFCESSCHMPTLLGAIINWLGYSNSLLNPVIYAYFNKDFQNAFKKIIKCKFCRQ
Protocol: as §1, §2

5-HT2C [2] = molecular target: T1, 5-HT2C; assay: FLIPR based assay, effect on 10 nM 5-HT induced Ca2+-currents; type: cell-based; settings: FLIPR functional assays
Protocol: The activity at 5-HT2C receptors was studied in a FLIPR based assay, measuring the effect of compounds on 10 nM 5-HT induced_Ca^2+-currents.

5-HT1B = molecular target: T3, 5-HT1B (Homo sapiens, UniProt P28222); assay: Radioligand displacement binding (3H-LSD); settings: recombinant human receptor in CHO or HEK293; tracer 3H-LSD
T3 construct: expressed in transfected cells; host or cells: CHO or HEK293
T3 sequence (P28222 whole entry): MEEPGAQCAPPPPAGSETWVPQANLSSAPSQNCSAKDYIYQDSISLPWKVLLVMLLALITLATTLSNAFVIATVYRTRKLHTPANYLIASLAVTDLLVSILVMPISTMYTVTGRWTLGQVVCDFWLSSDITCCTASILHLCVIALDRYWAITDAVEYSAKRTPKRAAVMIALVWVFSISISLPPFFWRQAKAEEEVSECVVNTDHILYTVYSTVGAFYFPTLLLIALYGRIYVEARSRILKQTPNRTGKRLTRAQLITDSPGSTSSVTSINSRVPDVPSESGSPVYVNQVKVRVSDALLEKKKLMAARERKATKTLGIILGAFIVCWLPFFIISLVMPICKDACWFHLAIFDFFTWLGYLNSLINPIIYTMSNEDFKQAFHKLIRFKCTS
Protocol: as §1, §2

5-HT2B = molecular target: T4, 5-HT2B (Homo sapiens, UniProt P41595); assay: Radioligand displacement binding (3H-LSD); settings: recombinant human receptor in CHO or HEK293; tracer 3H-LSD
T4 construct: expressed in transfected cells; host or cells: CHO or HEK293
T4 sequence (P41595 whole entry): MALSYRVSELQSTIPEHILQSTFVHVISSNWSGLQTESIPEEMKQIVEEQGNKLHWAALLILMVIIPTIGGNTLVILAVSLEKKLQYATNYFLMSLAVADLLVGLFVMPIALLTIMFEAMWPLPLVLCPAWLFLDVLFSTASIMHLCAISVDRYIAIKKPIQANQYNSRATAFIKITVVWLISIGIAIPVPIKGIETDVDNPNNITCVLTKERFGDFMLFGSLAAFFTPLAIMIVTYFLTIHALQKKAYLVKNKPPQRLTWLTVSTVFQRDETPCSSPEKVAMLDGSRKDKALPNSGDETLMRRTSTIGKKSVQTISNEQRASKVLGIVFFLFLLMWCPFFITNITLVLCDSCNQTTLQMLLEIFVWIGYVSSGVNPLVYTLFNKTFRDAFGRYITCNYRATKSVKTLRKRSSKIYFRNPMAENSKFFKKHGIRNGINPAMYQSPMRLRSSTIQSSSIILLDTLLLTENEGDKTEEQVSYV
Protocol: as §1, §2

5-HT2A [3] = molecular target: T5, 5-HT2A (Homo sapiens, UniProt P28223); assay: Radioligand displacement binding (3H-5-HT); set-up: expressed in transfected cells; host or cells: CHO or HEK293
T5 sequence (P28223 whole entry): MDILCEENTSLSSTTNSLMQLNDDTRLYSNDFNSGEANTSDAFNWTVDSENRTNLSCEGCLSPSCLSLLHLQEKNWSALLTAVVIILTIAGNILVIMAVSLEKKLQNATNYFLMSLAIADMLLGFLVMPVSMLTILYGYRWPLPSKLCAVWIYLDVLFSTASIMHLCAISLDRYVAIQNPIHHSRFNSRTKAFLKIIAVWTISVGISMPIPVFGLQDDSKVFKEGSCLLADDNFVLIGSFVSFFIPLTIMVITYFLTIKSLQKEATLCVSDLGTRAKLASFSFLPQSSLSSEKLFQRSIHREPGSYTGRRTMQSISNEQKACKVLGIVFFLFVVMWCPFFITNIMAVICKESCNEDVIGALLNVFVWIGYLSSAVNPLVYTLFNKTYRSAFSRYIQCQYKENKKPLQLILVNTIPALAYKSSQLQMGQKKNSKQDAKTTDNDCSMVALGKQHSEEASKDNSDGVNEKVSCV
Protocol: as §1, §2

5-HT2A [4] = molecular target: T5, 5-HT2A; assay: FLIPR functional assay, inhibition of the 5-HT-evoked peak response (primary screening and IC50 determination); type: cell-based; set-up: expressed in transfected cells; host or cells: CHO; settings: CHO cells expressing 5-HT2A, 15 min pre-incubation, Ki calculated from IC50 (Cheng-Prusoff)
Protocol: CHO cells expressing 5-HT2A receptors seeded in 384 well plates are pre-loaded with Fluo-4AM fluorescent dye and then incubated with compound (10 μM for primary screen) for 15 min. Fluorescent intensity is recorded using a Fluorometric imaging plate reader (FLIPR384, Molecular Devices) and inhibition of the peak response evoked by 5-HT (EC70 concentration) is calculated.
IC50 determinations are performed utilizing the same functional assay as described for primary screening (15 min antagonist compound pre-incubation), applying the compounds in the dose range of 3 nM to 10 μM.
as §2

5-HT6 = molecular target: T6, 5-HT6 (Homo sapiens, UniProt P50406); assay: Radioligand displacement binding (3H-5-HT); settings: recombinant human receptor in CHO or HEK293; tracer 3H-5-HT
T6 construct: expressed in transfected cells; host or cells: CHO or HEK293
T6 sequence (P50406 whole entry): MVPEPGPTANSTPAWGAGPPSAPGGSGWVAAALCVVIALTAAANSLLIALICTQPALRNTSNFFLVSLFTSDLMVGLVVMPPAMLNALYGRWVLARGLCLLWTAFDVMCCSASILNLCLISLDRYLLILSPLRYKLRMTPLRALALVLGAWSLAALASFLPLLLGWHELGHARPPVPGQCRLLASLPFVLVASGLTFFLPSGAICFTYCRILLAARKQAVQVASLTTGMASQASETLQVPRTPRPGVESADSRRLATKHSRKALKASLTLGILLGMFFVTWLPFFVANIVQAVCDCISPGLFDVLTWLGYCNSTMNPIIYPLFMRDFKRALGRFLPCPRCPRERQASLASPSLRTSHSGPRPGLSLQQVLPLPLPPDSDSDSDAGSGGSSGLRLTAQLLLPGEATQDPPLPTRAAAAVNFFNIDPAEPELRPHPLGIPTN
Protocol: as §1, §2

For `COc1cccc(OC)c1OCCN1CCC(C(=O)NC(=O)Nc2cccc(C(F)(F)F)c2)CC1` [Example 2, 1-[2-(2,6-dimethoxyphenoxy)ethyl]-N-({[3-(trifluoromethyl)phenyl]amino}carbonyl)piperidine-4-carboxamide], the Ki (5-HT2C [1]) was > 1000 nM, the Ki (5-HT1A) was > 1000 nM and the “Selectivity at 5-HT2A versus the 5-HT2C receptor in terms of efficacy” value (5-HT2C [2]) was “selective”. The Ki (5-HT1B) was > 1000 nM, the Ki (5-HT2B) was > 1000 nM and the “Selectivity over five other serotonin receptors (5-HT2C, 5-HT2B, 5-HT1A, 5-HT6 and 5-HT1B)” value (5-HT2A [3]; binding, 5-HT2A versus the other receptors) was “highly selective”. For the same molecule, the “Affinity for the 5-HT2A receptor subtype (Ki, in words)” value (5-HT2A [3]; equilibrium displacement binding) was “in the nanomolar range”, the Ki (5-HT2A [3]; recombinant human receptor in CHO or HEK293, tracer 3H-5-HT) was 23 nM and the Ki (5-HT2A [4]) was 32.3 nM. For the same molecule, the Ki (5-HT6) was > 1000 nM.
